# Where two headings read alike, the source gives them in different places.
# What was measured:
# [1] = for extent of metabolite formation / cofactor (NADPH) dependence of metabolite formation: result in words; for cofactor (NADPH) dependence of metabolite formation: human liver microsomes ± NADPH; for metabolite formation over time: samples every 30 min for 2 h
# Description: Parent compounds were incubated at final concentrations of either (a) 5 µM or (b) 50 µM (for chlorfenapyr) with pooled human liver microsomes (HLM; mixed gender, n = 150; BioIVT; West Sussex, UK) at corresponding protein concentrations of (a) 0.52 mg/mL or (b) 5.2 mg/mL. Incubations were performed in the absence or presence of NADPH at final concentrations of (a) 1 mM or (b) 10 mM, respectively, using a thermostated orbital shaker at 37 °C and 150 rpm. Reactions were terminated at designated time points by the addition of acetonitrile/methanol (3:1, v/v). Samples were then centrifuged at 10,000× g for 10 min, and the resulting supernatants were analysed by LC-MS/MS.
# All analytes were measured using an Acquity UPLC H-Class system coupled to a Xevo TQ-S micro mass spectrometer (Waters). Chromatographic separation was performed on an Acquity UPLC BEH C18 column (2.1 × 50 mm, 1.7 µm) with a mobile phase consisting of 0.1% formic acid in water (A) and acetonitrile (B). Unless otherwise stated, the column was maintained at 30 °C and operated at a flow rate of 0.4 mL/min. The standard gradient was 95% A from 0 to 1.0 min, decreased to 2% A by 1.5 min, held until 4.0 min, returned to 95% A at 4.3 min, and held until 5.0 min. […] The mass spectrometer operated in electrospray ionisation (ESI) mode. Compound-specific MRM transitions, cone voltages, and collision energies for all analytes are listed in Supplementary Table S2.
# Int. J. Mol. Sci. 2025, 26, x FOR PEER REVIEW 3 of 5
# Supplementary Figure S3: Quantification of specific metabolite formation from selected parent/metabolite pairs in a human liver microsomes (HLM) assay. Parent compounds (PAR) were incubated at a concentration of 5 µM (50 µM for chlorfenapyr) with HLM in the absence (dashed line, open symbols) or presence of NADPH (solid lines, closed symbols). Samples were taken every 30 min for 2 h (+NADPH) or at 2 h only (- NADPH). The remaining fraction of the PAR was quantified for each sample. Additionally, one key metabolite (MET) was measured. Its amount is expressed as fraction of PAR converted to MET, assuming an equimolar PAR to MET reaction, 100 % indicates a complete conversion. The middle-dashed line indicates a metabolite formation of at least 10% of PAR. Data are means of two measurements n.d. = not detected.
# (1 picture or pasted object on this page, not shown here)
# LUHMES cells [2] = assay: MitoMet (UKN4b) neurite outgrowth assay; assay type: cell-based, human; details: for IC25: Homo sapiens, benchmark response 25%, neurite area, 24 h exposure, three independent experiments, read-out: BMC25 neurite outgrowth; for fold change between BMC25 values of parent and metabolite (potency ratio, parent divided by metabolite): listed under the metabolite, >1 = metabolite more potent
# Description: Figure 1 (A) A strategy scheme to assess metabolite-mediated hazard in NAMs used for neurotoxicity or developmental neurotoxicity. Parent and metabolite compounds are tested separately in the respective assay. This strategy is applicable when there is prior knowledge of metabolite formation. A decision rule based on the relative toxicities (X) of the parent and metabolite may be applied to decide whether next-generation risk assessment (NGRA) should be applied to the metabolite. The value of X may be defined according to the problem formulation and the NAM used. (B) An assay scheme of the neurite outgrowth assay used here for exemplification: Proliferating LUHMES cells were replated one day before differentiation was initiated (day −1). After two days (day 2) in differentiation medium, the cells were replated into assay format (96-well). At this point, neurite growth was re-initiated. The cells were treated with toxicants 1 h after replating. Neurite outgrowth and viability were determined 24 h later, using automated high content imaging. (C) Comparison of neurite outgrowth of cultures treated with bromethalin and desmethyl-bromethalin one exemplary parent/metabolite pair (chemical structures shown). […] The curves are based on data from three independent experiments and were fitted using a four-parameter Hill function. Data points shown are arithmetic means of data from independent experiments ±SEM. In each independent experiment, the technical replicates were measured and averaged. A benchmark response (BMR) of 25% was used as specified in the detailed assay description, and the respective benchmark concentration (BMC25) was determined. […] (D) Microscopic images of calcein-stained LUHMES cells. Similar images are used for neurite quantification. Treatment with 40 nM of the parent (left) or metabolite (right). The scale bar in orange corresponds to 50 µm. […] It stands under panel C and to the right of panel D, and was assigned to C.
# (§1) The MitoMet neurite outgrowth assay was performed as previously described. In brief, all cell culture dishes and flasks were pre-coated with 50 μg/mL poly-l-ornithine (PLO) and 1 μg/mL fibronectin. Proliferating LUHMES cells were maintained in AdvDMEM/F12 containing L-glutamine (2 mM), N2 supplement (1x), and FGF (40 ng/mL). For pre-differentiation, the cells were replated at a density of 46,000 cells/cm^2 one day prior to the induction of differentiation (defined as the day of differentiation, Day −1). Differentiation was initiated by exchanging the culture medium for AdvDMEM/F12 supplemented with L-glutamine (2 mM), N2 supplement (1x), dibutyryl-cAMP (1 mM), tetracycline (1 µg/mL), and GDNF (2 ng/mL). After two days of differentiation (Day 2), the cells were replated (100,000 cells/cm^2) into 96-well plates. The final assay medium consisted of glucose-free AdvDMEM/F12 supplemented with galactose (18 mM), L-glutamine (2 mM), and tetracycline (1 µg/mL). One hour after replating, the cells were treated with a 10× concentrated stock solution of the test compound. Neurite outgrowth and viability were determined 24 h later, using automated high content imaging.
# The image acquisition and analysis were conducted according to established protocols. The cells were stained with Hoechst H-33342 (1 µg/mL) to visualise nuclei and calcein-AM (1 µM) to label viable cell structures. Fluorescent images were acquired using an automated imaging system.
# LUHMES cells [3] = test system: LUHMES cells
# Description: Figure 4 A strategy to incorporate metabolic competence into in vitro DNT testing methods. (A) A schematic overview of a sequential metabolism and testing approach. The “metabolisation module” uses hepatic post-mitochondrial fractions (S9) to generate metabolite mixtures in the presence or absence of cofactors (NADPH, glucose-6-phosphate, MgCl2). These metabolite mixtures are tested in the “testing module” in a concentration-dependent manner after serial pre-dilutions. Metabolite mixtures are added as a fraction of 10% to the media volume of the “testing module”. The testing module may be a cell-based neurotoxicity (NT) or developmental neurotoxicity (DNT) assay, such as the neurite outgrowth or migration assay. Here, the Mito-Met neurite outgrowth assay, as in Figure 1, was used. […] The curves represent data from three independent experiments and were fitted using a four-parameter Hill function. […] The data represent three independent experiments. The indicated concentrations are “testing module” concentrations.
# To further evaluate our modular pre-activation strategy for identifying metabolite-mediated hazard, we tested a broader panel of compounds. For each compound (parent), a single concentration was used in the metabolisation module. The metabolite mixtures were generated in the absence or presence of NADPH. These metabolite mixtures were serially diluted and assessed using the MitoMet neurite outgrowth assay. As a measure of potency, EC25 values were determined, and potency ratios were calculated to compare the effects of NADPH-dependent versus NADPH-independent metabolism.
# Figure 5 The effect of NADPH-dependent hepatic metabolism on the DNT of selected compounds. (A) A strategy scheme to assess the effect of metabolic enzymes on the outcome of cell-based DNT assays. Metabolite mixtures are generated using the NADPH-(in)dependent metabolic activity of S9. NADPH-independent metabolism is shown in green (light grey). NADPH-dependent metabolism is shown in red (dark grey). […] (B–F) The concentration-dependent effect of metabolite mixtures on neurite outgrowth was measured as in Figure 1, with the following modifications: red-fluorescent-protein (RFP)-expressing LUHMES cells were used. As the assay endpoint, the RFP fluorescence of neurites was used instead of calcein staining. The curves represent data from three independent experiments and were fitted using a four-parameter Hill function. From this, an EC25 was calculated. Bold numbers indicate the fold changes between EC25 values of the NADPH-(in)dependent metabolite mixtures, with the direction of the arrow reflecting the shift in sensitivity. Note that the x-axes indicate nominal concentrations of parent compounds. […] Similar images were used for neurite quantification. The right image (red frame) of the pairs was obtained with NADPH. The black arrowheads above the curves indicate the experimental conditions used to record images. The scale bar in orange corresponds to 50 µm.
# as §1, with “plates.” for “plates. The final assay medium consisted of glucose-free AdvDMEM/F12 supplemented with galactose (18 mM), L-glutamine (2 mM), and tetracycline (1 µg/mL). One hour after replating, the cells were treated with a 10× concentrated stock solution of the test compound. Neurite outgrowth and viability were determined 24 h later, using automated high content imaging.”
# [4] = human liver microsomes, listed under the metabolite
structure (smiles),measurement,setting,value
C[C@H]1[C@H](OC(=O)CCC(=O)O)O[C@@H]2O[C@@]3(C)CC[C@H]4[C@H](C)CC[C@@H]1[C@@]24OO3 [Artesunate],extent of metabolite formation,[1]; human liver microsomes,completely converted
same,IC25,LUHMES cells [2],3.4 µM
CCCCNC(=O)n1c(NC(=O)OC)nc2ccccc21 [Benomyl],IC25,LUHMES cells [2],3.7 µM
COc1ccc2cc3[n+](cc2c1OC)CCc1cc2c(cc1-3)OCO2 [Berberine],fold change between EC25 values of NADPH-(in)dependent metabolite mixtures (detoxification),LUHMES cells [3],5 x
same,effect of metabolisation in the presence of NADPH on toxicity,LUHMES cells [3]; result in words,reduced
O=P1(N(CCCl)CCCl)NCCCO1 (stereo not shown) [Cyclophosphamide],inhibition of neurite outgrowth without preincubation,"LUHMES cells [3]; 100 µM, 50 µg/mL S9, no preincubation",No inhibition of neurite outgrowth
same,reduction of neurite outgrowth,"LUHMES cells [3]; 100 µM, 50 µg/mL S9, with NADPH, 2 h preincubation",approximately 90%
same,neurite toxicity at low S9 concentrations,"LUHMES cells [3]; 100 µM, S9 <10 µg/mL, 2 h incubation",did not lead to neurite toxicity
same,fold change between EC25 values of NADPH-independent and NADPH-dependent metabolite mixtures (toxification),"LUHMES cells [3]; rat liver S9 50 µg/mL in testing module, 2 h preincubation, RFP-LUHMES, toxicity increased with NADPH",> 25 x
C[C@H]1[C@@H](O)O[C@@H]2O[C@@]3(C)CC[C@H]4[C@H](C)CC[C@@H]1[C@@]24OO3 [Dihydroartemisinin],cofactor (NADPH) dependence of metabolite formation,[1],largely independently of NADPH
same,metabolite formation over time,[1]; [4],time-dependent increase in metabolite formation
same,IC25,LUHMES cells [2],1.2 µM
same,"fold change between BMC25 values of parent and metabolite (potency ratio, parent divided by metabolite)",LUHMES cells [2],3 fold
COC(=O)Nc1nc2ccc(Sc3ccccc3)cc2[nH]1 [Fenbendazole],IC25,LUHMES cells [2],0.047 µM
"O=C(CCC[n+]1ccc(-c2ccc(Cl)cc2)cc1)c1ccc(F)cc1 [HPP+, haloperidol pyridinium ion]",extent of metabolite formation,[1]; human liver microsomes,only trace amounts
same,metabolite formation over time,[1]; [4],time-dependent increase in metabolite formation
same,IC25,LUHMES cells [2],7.1 µM
same,"fold change between BMC25 values of parent and metabolite (potency ratio, parent divided by metabolite)",LUHMES cells [2],4 fold
O=C(CCCN1CCC(O)(c2ccc(Cl)cc2)CC1)c1ccc(F)cc1 [Haloperidol],IC25,LUHMES cells [2],> 33 µM
O=P1(NCCCl)OCCCN1CCCl (stereo not shown) [Ifosfamide],fold change between EC25 values of NADPH-independent and NADPH-dependent metabolite mixtures (toxification),LUHMES cells [3],> 10 x
"CNC(C)Cc1ccc2c(c1)OCO2 (stereo not shown) [MDMA, methylenedioxymethamphetamine]",IC25,LUHMES cells [2],> 100 µM
"C[n+]1ccc(-c2ccccc2)cc1 [MPP+, 1-methyl-4-phenylpyridinium]",cofactor (NADPH) dependence of metabolite formation,[1],largely independently of NADPH
same,metabolite formation over time,[1]; [4],time-dependent increase in metabolite formation
same,conversion rate of parent to metabolite,"[1]; human liver microsomes, up to 2 h, listed under the metabolite",approximately 10%
same,IC25,LUHMES cells [2],0.12 µM
"CN1CC=C(c2ccccc2)CC1 [MPTP, 1-methyl-4-phenyl-tetrahydropyridine]",IC25,LUHMES cells [2],> 100 µM
CC(N)Cc1ccc(O)c(O)c1 (stereo not drawn) [α-Methyldopamine],IC25,LUHMES cells [2],16 µM
same,"fold change between BMC25 values of parent and metabolite (potency ratio, parent divided by metabolite)",LUHMES cells [2],> 6 fold

# Source: PMC12428754, “Testing Strategies for Metabolite-Mediated Neurotoxicity” (International Journal of Molecular Sciences, 2025)
